From PubChem BioAssay (NCI)
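48-hour exposure; five concentrations; linearly interpolated endpoints. GI50 = concentration required for 50% inhibition of growth. TGI marks complete inhibition of growth.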

Columns and labels:
Experiment in all cases: NCI tumour cell line growth inhibition, 48 h
NCI-H226 lung = tested on: NCI-H226 lung
KM12 colon = tested on: KM12 colon
HT29 colon = tested on: HT29 colon
MCF7 breast = tested on: MCF7 breast
NCI-H23 lung = tested on: NCI-H23 lung
RXF 393 renal = tested on: RXF 393 renal
MDA-MB-435 = tested on: MDA-MB-435
SW-620 colon = tested on: SW-620 colon
OVCAR-5 ovarian = tested on: OVCAR-5 ovarian
NCI-H460 lung = tested on: NCI-H460 lung
SK-MEL-28 melanoma = tested on: SK-MEL-28 melanoma
SF-539 CNS = tested on: SF-539 CNS
BT-549 breast = tested on: BT-549 breast
HCT-116 colon = tested on: HCT-116 colon
CCRF-CEM leukemia = tested on: CCRF-CEM leukemia
SK-MEL-5 melanoma = tested on: SK-MEL-5 melanoma
MOLT-4 leukemia = tested on: MOLT-4 leukemia
UACC-62 melanoma = tested on: UACC-62 melanoma
A549 NSCLC = tested on: A549 NSCLC
HOP-92 NSCLC = tested on: HOP-92 NSCLC
DU-145 prostate = tested on: DU-145 prostate
NCI-H522 lung = tested on: NCI-H522 lung
COLO 205 colon = tested on: COLO 205 colon
RPMI-8226 leukemia = tested on: RPMI-8226 leukemia
SK-OV-3 ovarian = tested on: SK-OV-3 ovarian
SN12C renal = tested on: SN12C renal
SK-MEL-2 melanoma = tested on: SK-MEL-2 melanoma
OVCAR-4 ovarian = tested on: OVCAR-4 ovarian
IGROV1 ovarian = tested on: IGROV1 ovarian
HCT-15 colon = tested on: HCT-15 colon
HS 578T breast = tested on: HS 578T breast
PC-3 prostate = tested on: PC-3 prostate
786-0 renal = tested on: 786-0 renal
OVCAR-8 ovarian = tested on: OVCAR-8 ovarian
HOP-62 NSCLC = tested on: HOP-62 NSCLC
EKVX NSCLC = tested on: EKVX NSCLC
T-47D breast = tested on: T-47D breast
NCI/ADR-RES ovarian = tested on: NCI/ADR-RES ovarian
U251 CNS = tested on: U251 CNS
UACC-257 melanoma = tested on: UACC-257 melanoma
HCC-2998 colon = tested on: HCC-2998 colon
ACHN renal = tested on: ACHN renal
K-562 leukemia = tested on: K-562 leukemia
M14 melanoma = tested on: M14 melanoma
CAKI-1 renal = tested on: CAKI-1 renal
HL-60(TB) leukemia = tested on: HL-60(TB) leukemia
SNB-19 CNS = tested on: SNB-19 CNS
A498 renal = tested on: A498 renal
MDA-MB-231 breast = tested on: MDA-MB-231 breast
SR leukemia = tested on: SR leukemia
UO-31 renal = tested on: UO-31 renal
SF-268 CNS = tested on: SF-268 CNS

Question: `Nc1ccc(-c2nnc(SCc3ccc(O)c4ncccc34)n2-c2ccccc2)cc1` was tested. Which GI50 (NCI-H226 lung) did it give?
Answer: 1150 nM

Question: And the TGI (NCI-H226 lung)?
Answer: > 100000 nM

Question: What about the GI50 (KM12 colon) of the same compound?
Answer: 50.4 nM

Question: And the TGI (KM12 colon)?
Answer: > 100000 nM

Question: What about the GI50 (HT29 colon) of the same compound?
Answer: 890 nM

Question: What about the TGI (HT29 colon) of the same compound?
Answer: > 100000 nM

Question: What about the GI50 (MCF7 breast) of the same compound?
Answer: 28.7 nM

Question: What about the TGI (MCF7 breast) of the same compound?
Answer: > 100000 nM

Question: And the GI50 (NCI-H23 lung)?
Answer: 32.2 nM

Question: What about the TGI (NCI-H23 lung) of the same compound?
Answer: > 100000 nM

Question: And the GI50 (RXF 393 renal)?
Answer: 81.6 nM

Question: What about the TGI (RXF 393 renal) of the same compound?
Answer: > 100000 nM

Question: And the GI50 (MDA-MB-435)?
Answer: 32.1 nM

Question: What about the TGI (MDA-MB-435) of the same compound?
Answer: > 100000 nM

Question: And the GI50 (SW-620 colon)?
Answer: 45.4 nM

Question: And the TGI (SW-620 colon)?
Answer: > 100000 nM

Question: And the GI50 (OVCAR-5 ovarian)?
Answer: 290 nM

Question: And the TGI (OVCAR-5 ovarian)?
Answer: > 100000 nM

Question: And the GI50 (NCI-H460 lung)?
Answer: 19 nM

Question: And the TGI (NCI-H460 lung)?
Answer: > 33000 nM

Question: What about the GI50 (SK-MEL-28 melanoma) of the same compound?
Answer: 72.4 nM

Question: What about the TGI (SK-MEL-28 melanoma) of the same compound?
Answer: > 100000 nM

Question: And the GI50 (SF-539 CNS)?
Answer: 48 nM

Question: And the TGI (SF-539 CNS)?
Answer: > 100000 nM

Question: What about the GI50 (BT-549 breast) of the same compound?
Answer: 29.1 nM

Question: And the TGI (BT-549 breast)?
Answer: > 100000 nM

Question: And the GI50 (HCT-116 colon)?
Answer: < 17.2 nM

Question: What about the TGI (HCT-116 colon) of the same compound?
Answer: > 37400 nM

Question: What about the GI50 (CCRF-CEM leukemia) of the same compound?
Answer: 36.8 nM

Question: And the TGI (CCRF-CEM leukemia)?
Answer: > 100000 nM

Question: And the GI50 (SK-MEL-5 melanoma)?
Answer: 25.2 nM

Question: And the TGI (SK-MEL-5 melanoma)?
Answer: 80.4 nM

Question: What about the GI50 (MOLT-4 leukemia) of the same compound?
Answer: 48.5 nM

Question: And the TGI (MOLT-4 leukemia)?
Answer: > 100000 nM

Question: And the GI50 (UACC-62 melanoma)?
Answer: 65 nM

Question: And the TGI (UACC-62 melanoma)?
Answer: 13200 nM

Question: And the GI50 (A549 NSCLC)?
Answer: 40.3 nM

Question: And the TGI (A549 NSCLC)?
Answer: > 100000 nM

Question: What about the TGI (HOP-92 NSCLC) of the same compound?
Answer: 20.3 nM

Question: And the GI50 (DU-145 prostate)?
Answer: 33.9 nM

Question: And the TGI (DU-145 prostate)?
Answer: > 100000 nM

Question: What about the GI50 (NCI-H522 lung) of the same compound?
Answer: 26.8 nM

Question: What about the TGI (NCI-H522 lung) of the same compound?
Answer: 6810 nM

Question: What about the GI50 (COLO 205 colon) of the same compound?
Answer: 1010 nM

Question: What about the TGI (COLO 205 colon) of the same compound?
Answer: 3420 nM

Question: What about the GI50 (RPMI-8226 leukemia) of the same compound?
Answer: 24.4 nM

Question: What about the TGI (RPMI-8226 leukemia) of the same compound?
Answer: > 100000 nM

Question: And the GI50 (SK-OV-3 ovarian)?
Answer: 118 nM

Question: And the TGI (SK-OV-3 ovarian)?
Answer: 911 nM

Question: What about the GI50 (SN12C renal) of the same compound?
Answer: 31.8 nM

Question: And the TGI (SN12C renal)?
Answer: > 100000 nM

Question: And the GI50 (SK-MEL-2 melanoma)?
Answer: 64.4 nM

Question: What about the TGI (SK-MEL-2 melanoma) of the same compound?
Answer: 4840 nM

Question: What about the GI50 (OVCAR-4 ovarian) of the same compound?
Answer: 68.8 nM

Question: What about the TGI (OVCAR-4 ovarian) of the same compound?
Answer: > 100000 nM

Question: What about the GI50 (IGROV1 ovarian) of the same compound?
Answer: 49.7 nM

Question: And the TGI (IGROV1 ovarian)?
Answer: > 100000 nM

Question: What about the GI50 (HCT-15 colon) of the same compound?
Answer: 49.8 nM

Question: And the TGI (HCT-15 colon)?
Answer: > 100000 nM

Question: And the GI50 (HS 578T breast)?
Answer: 47.8 nM

Question: What about the TGI (HS 578T breast) of the same compound?
Answer: > 100000 nM

Question: And the GI50 (PC-3 prostate)?
Answer: 17 nM

Question: And the TGI (PC-3 prostate)?
Answer: > 100000 nM

Question: What about the GI50 (786-0 renal) of the same compound?
Answer: 238 nM

Question: What about the TGI (786-0 renal) of the same compound?
Answer: > 100000 nM

Question: And the GI50 (OVCAR-8 ovarian)?
Answer: 38.7 nM

Question: And the TGI (OVCAR-8 ovarian)?
Answer: > 100000 nM

Question: What about the GI50 (HOP-62 NSCLC) of the same compound?
Answer: 66.1 nM

Question: And the TGI (HOP-62 NSCLC)?
Answer: > 100000 nM

Question: And the GI50 (EKVX NSCLC)?
Answer: 415 nM

Question: What about the TGI (EKVX NSCLC) of the same compound?
Answer: > 100000 nM

Question: What about the GI50 (T-47D breast) of the same compound?
Answer: 73.5 nM

Question: And the TGI (T-47D breast)?
Answer: > 100000 nM

Question: What about the GI50 (NCI/ADR-RES ovarian) of the same compound?
Answer: 2290 nM

Question: What about the TGI (NCI/ADR-RES ovarian) of the same compound?
Answer: > 100000 nM

Question: And the GI50 (U251 CNS)?
Answer: 25.4 nM

Question: And the TGI (U251 CNS)?
Answer: > 100000 nM

Question: And the GI50 (UACC-257 melanoma)?
Answer: 62.2 nM

Question: What about the GI50 (HCC-2998 colon) of the same compound?
Answer: 58.3 nM

Question: And the TGI (HCC-2998 colon)?
Answer: > 100000 nM

Question: And the GI50 (ACHN renal)?
Answer: 63.9 nM

Question: And the GI50 (K-562 leukemia)?
Answer: 15.2 nM

Question: What about the TGI (K-562 leukemia) of the same compound?
Answer: > 100000 nM

Question: What about the GI50 (M14 melanoma) of the same compound?
Answer: 40.2 nM

Question: What about the TGI (M14 melanoma) of the same compound?
Answer: 4300 nM

Question: And the GI50 (CAKI-1 renal)?
Answer: 62.7 nM

Question: What about the TGI (CAKI-1 renal) of the same compound?
Answer: > 100000 nM

Question: And the GI50 (HL-60(TB) leukemia)?
Answer: 40.5 nM

Question: And the TGI (HL-60(TB) leukemia)?
Answer: > 100000 nM

Question: And the GI50 (SNB-19 CNS)?
Answer: 32.3 nM

Question: And the TGI (SNB-19 CNS)?
Answer: > 100000 nM

Question: What about the GI50 (A498 renal) of the same compound?
Answer: 933 nM

Question: What about the TGI (A498 renal) of the same compound?
Answer: > 24600 nM

Question: And the GI50 (MDA-MB-231 breast)?
Answer: 69.5 nM

Question: And the TGI (MDA-MB-231 breast)?
Answer: 98800 nM

Question: What about the GI50 (SR leukemia) of the same compound?
Answer: 44.1 nM

Question: And the TGI (SR leukemia)?
Answer: > 100000 nM

Question: And the GI50 (UO-31 renal)?
Answer: 140 nM

Question: And the TGI (UO-31 renal)?
Answer: > 100000 nM

Question: What about the GI50 (SF-268 CNS) of the same compound?
Answer: 45.2 nM

Question: What about the TGI (SF-268 CNS) of the same compound?
Answer: > 100000 nM
